Results: paper PMC12735718, “Novel Adamantane–Sclareol Hybrids Exploit ROS Vulnerability to Overcome Multidrug-Resistance in Glioblastoma Cells” (Molecules, 2025)

How the values were obtained:
[1] = system: TrxR1 protein in U87-TxR cells; experiment: TrxR1 protein expression by flow cytometry, U87-TxR; assay type: cell-based, human; details: 48 h; for protein level of TrxR1: 2 µM and 4 µM
Description: Flow cytometry was used to assess TrxR1 and ASK1 protein expression in the U87 and U87-TxR cell lines. Cells were seeded and allowed to attach overnight before exposure to compounds 2 and 5 at final concentrations of 2 μM and 4 μM. After 48 h treatment, cells were collected by trypsinization, rinsed with PBS, and subsequently fixed in 4% PFA for 10 min at room temperature. For permeabilization, ice-cold absolute methanol was added, and the samples were maintained at −20 °C overnight. Following this step, cells were washed in PBS and incubated for 1 h in 0.5% BSA/PBS to block nonspecific binding. Pelleted cells were then resuspended in primary antibodies diluted in 0.5% BSA/PBS [(ASK1, 1:200 (ab45178, Abcam, Cambridge, UK); TrxR1, 1:500 (ab124954, Abcam, Cambridge, UK)] and incubated overnight at +4 °C. Cells were then washed in PBS and incubated for 1 h at room temperature in the dark with fluorescently labeled anti-rabbit IgG secondary antibody (Alexa Fluor 488, ab150097, Abcam, Cambridge, UK), diluted 1:1000 in 0.5% BSA/PBS. Following incubation, samples were washed, resuspended in cold PBS, and analyzed by flow cytometry. A minimum of 10,000 events per sample were acquired, and fluorescence was detected in a green fluorescence channel (525 nm). Data acquisition and processing were performed using CytExpert software (version 2.4.0.28; Beckman Coulter, Indianapolis, IN, USA).

U87-TxR cells = experiment: Cell death detection, AV/PI staining, U87-TxR; assay type: cell-based, human; details: 48 h; for cell death effect in MDR U87-TxR cells vs sensitive U87 cells: 4 µM, AV/PI; for percentage of early apoptotic cells vs untreated: 2 µM and 4 µM, particularly at 4 µM
Description: To evaluate the extent of cell death upon treatment with adamantane–sclareol hybrids, apoptotic, necrotic, and viable cell populations were assessed using dual staining with AV/PI. U87 and U87-TxR cells were seeded in 6-well plates at a density of 150,000 cells per well and incubated overnight. Subsequently, cells were treated with 2 and 5 (2 µM and 4 µM) for 48 h. At the end of the treatment period, cells were collected (both adherent and floating), washed, and incubated with AV/PI in binding buffer. Samples were analyzed using a CytoFLEX flow cytometer (Beckman Coulter, Indianapolis, IN, USA), with fluorescence signals detected at 525 nm (AV) and 585 nm (PI). At least 10,000 events were recorded per each condition. The percentages of viable (AV^− PI^−), early apoptotic (AV^+ PI^−), late apoptotic (AV^+ PI^+), and necrotic (AV^− PI^+) cells were calculated using CytExpert 2.4.0.28 software (Beckman Coulter, Indianapolis, IN, USA).

[2] = system: antioxidant-related gene mRNA in U87 cells; experiment: RT-qPCR of oxidative-stress-related genes, U87; assay type: cell-based, human; details: U87, 4 µM, 24 h; for increase in GPX1 mRNA expression: relative to untreated control
Description: Prior to RNA isolation, U87 and U87-TxR cell were treated with 4 μM 2 and 5 for 24 h. TRIzol® Reagent was used to isolate total RNA according to manufacturer’s instructions. RNA concentration was determined with NanoPhotometer N60 (Implen GmbH, Munchen, Germany). Quality was determined using electrophoresis on a 1.3% agarose gel. Reverse transcription reaction was carried out using High-Capacity cDNA Reverse Transcription Kit with RNase Inhibitor.
Quantitative RT-PCR (RT-qPCR) was performed to evaluate mRNA expression levels of CAT, GSR, SOD2, GPX1, GPX4, GST, TRX1, and TRXR1, with ACTB used as the reference gene. Reactions were carried out using Maxima SYBR Green/ROX qPCR Master Mix (Thermo Fisher Scientific, Waltham, MA, USA) in the QuantStudio™ 3 Real-Time PCR System (Applied Biosystems by Thermo Fisher Scientific). Thermocycling conditions consisted of an initial incubation at 50 °C for 5 min, followed by denaturation at 95 °C for 10 min and then 40 cycles of amplification with denaturation at 95 °C for 15 s and annealing/extension at 60 °C for 60 s. Relative gene expression levels were calculated using the ΔΔCt method, normalizing target gene expression to ACTB. All reactions were performed in technical triplicates.

A-172 cells = experiment: MTT cell viability assay, A-172; assay type: cell-based; details: Homo sapiens, 72 h treatment
Description: Cell viability was measured using the colorimetric MTT assay based on the reduction of MTT into formazan dye. Cell lines were seeded into 96-well cell culture plates (4000 cells/well) in appropriate medium. After overnight incubation, cells were treated with increasing concentrations of 1, 2, 3, 4, 5, and 6 (0.5, 1, 2, 4, and 8 µM). After 72 h treatment, MTT solution (4 mg/mL) was added and plates were incubated at 37 °C with 5% CO2 for 3 h. After incubation, formazan crystals were dissolved using 100 µL DMSO, resulting in a purple color. The absorbance was measured at 570 nm with a reference wavelength of 690 nm using an automated microplate reader (MultiskanSky, Thermo Scientific, USA). The IC50 values were determined by non-linear regression analysis in GraphPad Prism 8.0.2. software (GraphPad Software, Boston, MA, USA).

[3] = system: mitochondrial membrane potential in U87 and U87-TxR cells; experiment: TMRE mitochondrial membrane potential; assay type: cell-based, human; details: 4 µM, 24 h, both cell lines
Description: The cell-permeable fluorescent dye TMRE was used to evaluate mitochondrial membrane potential. TMRE selectively accumulates in active mitochondria with intact membrane potential. […] U87 and U87-TxR cells were seeded in 6-well plates at a density of 150,000 cells per well. After 24 h, cells were treated with 2 and 5 (4 µM) and incubated for an additional 24 h. After treatment, cells were trypsinized, resuspended in complete medium containing 500 nM TMRE, and incubated for 30 min at 37 °C in the dark. CCCP (10 µM) was used as a positive control for mitochondrial depolarization and added 30 min before staining. For each sample, at least 10,000 events were collected. TMRE was detected at […]. The results were calculated using CytExpert 2.4.0.28 software (Beckman Coulter, Indianapolis, IN, USA).

| Compound | protein level of TrxR1 [1] | increase in TrxR1 level ([1]; 4 µM, relative to untreated control) [%] | cell death effect in MDR U87-TxR cells vs sensitive U87 cells (U87-TxR cells) | percentage of early apoptotic cells vs untreated (U87-TxR cells) | early apoptotic population (AV+ PI−) (U87-TxR cells; untreated cells 4.17%, Figure S3) [%] | CAT mRNA expression levels [2] | GSTP gene expression [2] | increase in GPX1 mRNA expression [2] [fold] | IC50 (A-172 cells) [µM] | TMRE fluorescence (mitochondrial membrane potential) [3] | TRX1 mRNA [2] |
| --- | --- | --- | --- | --- | --- | --- | --- | --- | --- | --- | --- |
| CC1(C)CCC[C@]2(C)[C@@H](CC[C@@](C)(O)/C=C/c3ccc(CNCCCCCCCCNCC45CC6CC(CC(C6)C4)C5)o3)[C@](C)(O)CC[C@@H]12 [Compound 5] | significantly increased | 69 | significantly better effects in MDR U87-TxR cells | significant increase | 32.6 | remained unchanged | significantly increased | 2.2 | 4.74 ± 0.129 | decreased |  |
| CC1(C)CCC[C@]2(C)[C@@H](CC[C@@](C)(O)/C=C/c3ccc(CNCCCCCCCCNCC45CC6CC(CC(C6)C4)C5)s3)[C@](C)(O)CC[C@@H]12 [Compound 2] | significantly increased |  | significantly better effects in MDR U87-TxR cells | significant increase |  | remained unchanged | significantly increased | 1.8 | 2.05 ± 0.37 | decreased | significant downregulation |
